Results reported in US20240091228A1, “Uridine Phosphorylase Inhibitors to Prevent or Treat Drug-Induced Pulmonary Dysfunction” (Tosk, Inc., priority 2021, published 2024).

Assays:
[1] = in vivo; cited from earlier work
[2] = tested on: bleomycin-induced pulmonary fibrosis; test: bleomycin-induced pulmonary fibrosis study in mice, lung histology (Masson's trichrome, Ashcroft grading); assay type: in vivo; conditions: for lower fibrosis (histology score) than mice treated with the dosing vehicle / statistical significance of the fibrosis decrease vs dosing vehicle: C57BL/6 male mice, bleomycin OA day 0, 60 mg/kg IP BID days 7 through 20; for statistical significance of the fibrosis decrease vs dosing vehicle: SPSS
Description: FIG. 2. Figure is a chart providing histology scores for pulmonary tissue from mice treated with bleomycin (a well characterized lung toxin) and either dosing vehicle, uridine, or TK-112690. Thirty-three C57BL/6 male mice, 10-14 weeks old at study initiation, were acclimatized for least 3 days. The mouse has been selected as is referenced in the literature as a representative species of choice for this experimental animal model. During acclimation and throughout the entire study duration, animals were housed within a limited access rodent facility and kept in groups of a maximum of 4 mice per cage. Mice were housed in polypropylene cages with solid bottoms and wood shavings or corn cobb as bedding material. Animals were provided ad libitum with a commercial rodent diet and had free access to drinking water that is supplied to each cage via polyethylene bottles. The automatically controlled environmental conditions was set to maintain temperature at 20-26° C. with a relative humidity (RH) of 30-70%, a 12:12 hour light: dark cycle, and 10-15 air changes/hour in the study room. Animals were given a unique animal identification tail mark as a means of identification. This number also appeared on a cage card, which was visible on the front of each cage. The cage card also contained the study and group numbers, route of administration, gender, study director, and arrival date.
Animals were randomly assigned to cages upon arrival. Animals were assigned to treatment groups prior to treatment initiation. At study termination, surviving animals were weighed prior to euthanasia. Euthanasia was performed via anesthesia overdose and exsanguination.
The Table below lists the experimental group(s) comprising the study.
Disease Induction. 75 uL of Bleomycin (section 4.5.) was administered on day 0 via oropharyngeal aspiration (OA). The mice were anesthetized via isoflurane/oxygen and suspended by their cranial incisors on a thin wire from an angled stand. The tongue was gently held from the mouth using blunt forceps to visualize the base of the tongue and the pharynx. Bleomycin/saline suspension was pipetted onto posterior pharynx. Nostrils were held gently closed, Respiration was monitored to ensure the suspension is fully aspirated.
Treatment. Groups 3 and 4 were treated via intraperitoneal (IP) injection at a dosing volume of 10 ml/kg twice daily, 6-8 hours between doses, from days 7 through 20.
Observations and Examinations. Clinical signs, humane endpoints, and palliative care were monitored, as follows: changes in skin, fur, eyes, mucus membranes, occurrence of secretions and excretions, autonomic activity, gait, posture, response to handling, abnormal behavior, tremors, convulsions, sleep and coma, labored breathing, and adventitious lung sounds.
The bleomycin administration induced a severe pulmonary inflammation resulting in lethargy, dehydration, and death of diseased animals. Animals in all diseased groups were given fresh diet gel daily beginning on Day 7 and through the remainder of the study. Body weight measurements were performed 3× weekly starting on Day 0 and throughout the rest of the study.
Termination: BALF and tissue collection. Animals were euthanized via isoflurane overdose. Following euthanasia an angiocatheter was inserted into the trachea. […]
Histology. […] Disease severity and collagen levels were assessed by the Ashcroft fibrosis grading system.
The resulting data were analyzed by SPSS, version 20.

[3] = tested on: chemotherapy-induced mucositis; test: mitigation of chemotherapy-induced mucositis; conditions: in vivo
[4] = elimination half-life of Compound 1 in mice; conditions: mouse, in vivo, read-out: elimination t1/2
[5] = side effects of TK-112690
UPase = conditions: cited from earlier work
plasma uridine = plasma uridine vs plasma Compound 1 concentration after continuous sc osmotic-pump infusion to mice; assay type: in vivo; conditions: BDF-1 male mice, constant-rate sc infusion 667, 833 or 3000 mg/kg/day
Procedure: Because uridine is cleared so rapidly, with an elimination half-life (t1/2) only a few minutes,^13 and the elimination t1/2 of Compound 1 in mice is only 1-2 hours, it is very challenging to measure uridine concentrations elevations post discrete doses of Compound I, such as used for ip dosing. For this reason, continuous infusion of Compound 1 (TK-112690) to BDF-1 t mice was administered via sc implanted osmotic pumps, and the uridine plasma concentration was measured. Solutions of Compound 1 were prepared at a concentration of 500 mg/mL in sterile PBS. Osmotic pumps (ALZET® micro-osmotic pump 2001D and 1003D, Alza Co) were loaded with 200 μL. (2001D osmotic pump) and/or 100 μL (1003D osmotic pump) of Compound 1 solution.
BDF-1 male mice (n=6) were treated with a constant-rate infusion of 667, 833 or 3000 mg/kg/day doses of Compound 1 delivered via subcutaneously implanted osmotic pumps. Animals were anesthetized with 100 mg/kg ketamine prior to pump implantation. Surgical scissors were used to make an approximately 1 cm incision on the dorsal surface near the shoulder blade of animals. A hemostat was used to carve out a subcutaneous tunnel toward the anterior end of animal. Osmotic pumps were placed inside the subcutaneous tunnel. Incision was sealed with wound clips.
Blood collections were performed on animals anesthetized with ketamine (ip 100 mg/kg). Blood samples from animals treated with a constant-rate infusion of TK-112690 were collected at 72 hours for 667 mg/kg/day and 833 mg/kg/day, and 24 hours for 3000 mg/kg/day after pump implantation. Whole blood (˜0.8 mL) was drawn through the retro-orbital sinus using a heparin coated micro-hematocrit tubes and collected into EDTA microtainer tubes. Blood samples were transferred into fresh 1.5 mL microcentrifuge tubes and centrifuged for 10 minutes at 14,000×g using an Eppendorf Minispin Plus stored in a 4° C. refrigerator. Exactly 0.4 mL of plasma was transferred into fresh microcentrifuge tubes containing 2 μL of 10 mM 5-FU and vortexed at highest setting for approximately 5 seconds. […]

hepatic fibrosis = test: animal model of hepatic fibrosis; assay type: in vivo; conditions: summary statement

half-life [4] | SMILES | elimination half-life (t1/2) [1] | lower fibrosis (histology score) than mice treated with the dosing vehicle [2] | statistical significance of the fibrosis decrease vs dosing vehicle [2] | efficacy as an agent to mitigate chemotherapy-induced mucositis [3] | side effects [5] | UPase inhibitor (UPase) | protection in bleomycin-induced animal model of pulmonary fibrosis ([2]; summary statement) | effect on plasma uridine (plasma uridine) | intercept of regression line, plasma uridine concentration vs plasma Compound 1 concentration (plasma uridine) | slope of regression line, plasma uridine concentration vs plasma Compound 1 concentration (plasma uridine) | protection in animal model of hepatic fibrosis (hepatic fibrosis)
 | O=c1ccn([C@@H]2O[C@H](CO)[C@@H](O)[C@H]2O)c(=O)[nH]1 [uridine] | a few minutes | 7% | not statistically significant |  |  |  |  |  |  |  | 
1 to 2 h | Cc1cn2c(nc1=O)O[C@H]1[C@H](O)[C@@H](CO)O[C@H]12 [TK-112690] |  | 30% | statistically significant | proven efficacy | no known side effects | authentic UPase inhibitor | protects | elevate plasma uridine in a linear fashion | 0.051 | 0.010 | protects
